Results on 3 compounds are retold here after article PMC8745299, “Generation of Lasso Peptide-Based ClpP Binders” (International Journal of Molecular Sciences, 2021).

Bridge positions count the residues as written; N and C are the ends. Square brackets hold non-standard residues; d marks the D form. Ends that are not written are not given here. Peptide text beside a SMILES is read from it. * marks the point of attachment. Phe(3,5-F2) = N[C@@H](Cc1cc(F)cc(F)c1)C(=O)O; Pro(4R-Me) = C[C@H]1CN[C@H](C(=O)O)C1; Propanoyl(3-cHex) = O=C(CCC1CCCCC1)*; NMeA = CN[C@@H](C)C(=O)O

For one data set, the system named is thermolysin. Particulars: cleavage e.g. between Phe10 and Val11; gas phase and solution; cited from earlier work.
The next data set deals with T1, BsClpP (Bacillus subtilis, UniProt P80244).
T1 construct: His-tag (C); made in house; host or cells: E. coli BL21 (DE3)
Description: BsClpP peptidase activity, preparation not specified. It counts as biochemical, B. subtilis. Particulars: summary in discussion. As for the experimental part:
(§1) Peptide degradation assays were performed in black flat-bottom 96-well plates with a total reaction volume of 100 μL and reaction temperatures of 32 °C and 37 °C for SaClpP and BsClpP, respectively. Stock solutions of ADEP2 and MccJ25 WT or variants were dissolved in DMSO and pre-diluted to 100× of the final concentration. Accordingly, 1 μL of the respective stock solution was placed at the bottom of the wells. […] 50 μL of a 2× enzyme solution (final assay concentration: 1 μM) in activity buffer was added to the plate and incubated for 15 min at 32 °C and 37 °C for SaClpP and BsClpP activity assays, respectively. The enzyme reaction was started by addition of 49 μL of a solution of the fluorogenic model peptide substrate Suc-Leu-Tyr-AMC in activity buffer at a final concentration of 200 μM. For SaClpP assays, the activity buffer was comprised of 100 mM NaCl and 100 mM HEPES at pH 7. BsClpP activity buffer (50 mM Tris-HCl, 25 mM MgCl2, 200 mM KCl, 2 mM DTT, pH 8) was used in BsClpP assays as well as in SaClpP experiments, where the buffer composition was supposed to lead to oligomeric breakdown of the SaClpP tetradecamer to allow testing the activity retaining effect of ClpP agonists. The fluorescence read-out was measured using a Tecan (Crailsheim, Germany) M200Pro plate reader (excitation/emission: 380/460 nm) every 30–60 s for 1 h. Enzyme velocity was determined by linear regression of the initial segment of the fluorescence-time plot in GraphPad Prism 5 (GraphPad Software, San Diego, CA, USA). All assays were performed in triplicate and repeated at least two times.

For data set [1], the system named is Gram-negative RNA polymerase. The conditions noted are these: blocking of NTP uptake channel; cited from earlier work. The source says:
(§2) Microcin J25 (MccJ25) is the most well-studied lasso peptide (Figure 2A). […] MccJ25 enters its target cells through hijacking the TonB-dependent siderophore receptor FhuA [8, 19, 20] which explains its narrow activity spectrum. MccJ25 originates from Escherichia coli AY25 [13] and thus can be produced very well heterolo ...

Another data set deals with Enterobacteriaceae. Particulars: cited from earlier work.
Excerpt: as §2

The conditions of data set [2]: cited from earlier work. The source says: MccJ25 is exceptionally stable, even for lasso peptide standards.
Data set [3] concerns the target T2, SaClpP (Staphylococcus aureus, UniProt Q2G036).
T2 sequence (Q2G036 1-195): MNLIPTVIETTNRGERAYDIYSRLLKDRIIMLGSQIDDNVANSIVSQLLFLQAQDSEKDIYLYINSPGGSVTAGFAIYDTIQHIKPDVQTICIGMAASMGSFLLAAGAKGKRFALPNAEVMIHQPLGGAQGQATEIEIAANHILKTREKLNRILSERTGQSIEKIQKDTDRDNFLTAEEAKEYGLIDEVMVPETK
Description: Peptide (Suc-LY-AMC) degradation by SaClpP in destabilizing Tris buffer pH 8. It counts as biochemical, S. aureus. Also on record: Strep-tag (C); made in house; host or cells: E. coli BL21 (DE3).
Excerpt: (§3) In order to assess the different MccJ25 variants, we first chose S. aureus ClpP (SaClpP) as a model peptidase and performed in vitro degradation assays with the fluorogenic model peptide substrate Suc-LY-AMC. […] To investigate whether the MccJ25 variants can exert a stabilizing effect on the oligomeric structure of tetradecameric SaClpP, we conducted peptide degradation assays under destabilizing conditions employing a Tris buffer at pH 8.
This experimental setup was then used to differentiate the MccJ25 variants regarding their effect on ClpP stability. […] The apparent affinity constant was deduced from enzyme activity assays and represents the effector molecule concentration at half maximal stimulation of enzyme activity (the lower the apparent affinity constant, the higher the affinity). To exclude that 12IGF serves as a SaClpP substrate, we incubated a mixture of SaClpP and 12IGF under assay conditions for up to 260 min.
as §1

The subject of data set [4] is ClpPs from different organisms. Particulars: fully assembled ClpX hexamer; cited from earlier work. The text has this:
ClpX carries six coupled IGF motifs in a rather favorable orientation.

The target in data set [5] is T2, SaClpP. The experiment in a line: Peptide (Suc-LY-AMC) degradation by SaClpP in HEPES buffer pH 7. Also on record: Strep-tag (C); made in house; host or cells: E. coli BL21 (DE3). Type of data set: biochemical, S. aureus. The conditions noted are these: Figure 4A. The method, then: as §3
Peptide degradation assays were performed in black flat-bottom 96-well plates with a total reaction volume of 100 μL and reaction temperatures of 32 °C and 37 °C for SaClpP and BsClpP, respectively. Stock solutions of ADEP2 and MccJ25 WT or variants were dissolved in DMSO and pre-diluted to 100× of the final concentration. Accordingly, 1 μL of the respective stock solution was placed at the bottom of the wells. […] 50 μL of a 2× enzyme solution (final assay concentration: 1 μM) in activity buffer was added to the plate and incubated for 15 min at 32 °C and 37 °C for SaClpP and BsClpP activity assays, respectively. […] The fluorescence read-out was measured using a Tecan (Crailsheim, Germany) M200Pro plate reader (excitation/emission: 380/460 nm) every 30–60 s for 1 h. Enzyme velocity was determined by linear regression of the initial segment of the fluorescence-time plot in GraphPad Prism 5 (GraphPad Software, San Diego, CA, USA). […]

Data set [6] deals with T2, SaClpP. Description: Analytical gel filtration, SaClpP oligomeric state. Also on record: Strep-tag (C); made in house; host or cells: E. coli BL21 (DE3). The conditions noted are these: Superdex 200, Tris buffer pH 8, representative experiment from three repetitions. On the technique in general: In gel filtration, larger molecules generally elute earlier.
Data set [7] deals with T2, SaClpP. Set-up: Strep-tag (C); made in house; host or cells: E. coli BL21 (DE3). The conditions noted are these: ADEP2 vs natural product ADEP1; ref not given; cited from earlier work. The text has this:
Figure 3 Grafting of the hydrophobic tripeptide binding motifs onto the MccJ25 lasso peptide scaffold. (A) Schematic of the ClpP tetradecamer and the complete Clp protease complex, i.e., ClpP in concert with ClpX. The interaction between ClpP and the ClpX ATPase occurs between protruding flexible loops of ClpX, carrying the conserved tripeptide motif (L/I/V)-G-(F/L), and the H-pockets of ClpP. The H-pockets are located between two adjacent monomers of ClpP. In the ClpXP complexes of S. aureus and B. subtilis, which we used for our biochemical assays, the respective motif is IGF. (B) The IGF tr ...

In data set [8] the target is T2, SaClpP. The experiment in a line: biochemical. Set-up: Strep-tag (C); made in house; host or cells: E. coli BL21 (DE3).
Description: Casein degradation assays were performed analogous to peptide degradation assays. Fluorescein-labelled casein (FITC-casein) was employed at final concentrations of 20 μM in the respective activity buffers (see peptide degradation assay). 1 μL of a 100× stock solution of ADEP2 in DMSO was placed at the bottom of the wells followed by the addition of a 2× SaClpP or BsClpP enzyme solution (1 μM final concentration, unless noted otherwise). The mixture was incubated at 32 °C or 37 °C for 15 min and then the reaction was started by the addition of a 2× FITC-casein solution in the corresponding activity buffer. The fluorescence read-out was measured using a Tecan (Crailsheim, Germany) M200Pro plate reader employing an excitation wavelength of 485 nm and an emission wavelength of 535 nm. Enzyme velocity was acquired by linear regression of the initial segment of the fluorescence graph and plotted against ADEP2 concentration. All assays were performed in duplicate or triplicate.

T1 sequence (P80244 whole entry): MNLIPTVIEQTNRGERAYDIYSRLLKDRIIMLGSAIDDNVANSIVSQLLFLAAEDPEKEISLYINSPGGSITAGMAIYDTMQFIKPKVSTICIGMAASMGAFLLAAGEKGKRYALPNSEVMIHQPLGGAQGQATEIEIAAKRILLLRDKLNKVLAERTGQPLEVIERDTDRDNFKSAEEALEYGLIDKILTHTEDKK

Consider “microcin J25 (GGAGHVPEYFVGIGTPISFYG; lactam N-8; also: lasso topology, tail threaded through ring) [WT MccJ25, wild type lasso peptide from Escherichia coli AY25]”, for which, in the data set on thermolysin, the “stability of [2]rotaxane after loop hydrolysis by thermolysin” value is “does not cause ring and tail to dissociate”. Also, the “effect on BsClpP activity” value in the data set with BsClpP is “neither WT MccJ25 nor several of the other mutated variants constructed in this study affected either of the ClpPs”. In addition, in data set [1], the RNA polymerase inhibition entry is “inhibition of the Gram-negative RNA polymerase”. In addition, in the data set on Enterobacteriaceae, the antibiotic activity result was “exhibits antibiotic activity against Enterobacteriaceae”. Besides, the thermal stability entry in data set [2] was “withstand autoclaving at 120 °C”. The “SaClpP peptidase activity retained in Tris buffer” value with SaClpP [3] (Tris buffer pH 8, 46 μM lasso peptide (Figure 4C), 32 °C, three independent experiments) is on record as “only the three variants carrying the canonical tripeptide motif at positions 12–14 were able to retain SaClpP activity in Tris buffer”. The “effect on SaClpP activity” value with SaClpP [3] (summary in discussion) is “neither WT MccJ25 nor several of the other mutated variants constructed in this study affected either of the ClpPs”.

In the case of “ClpX: Clp-ATPase ClpX hexamer carrying six coupled IGF motifs”, in data set [4], the “ClpP affinity relative to ADEP2” value is recorded as “weaker affinities than ADEP2”.

The term EC50 denotes the concentration at which the effect is half-maximal. Consider `C[C@@H]1C[C@H]2C(=O)OC[C@H](NC(=O)[C@H](Cc3cc(F)cc(F)c3)NC(=O)CCC3CCCCC3)C(=O)N3CCC[C@H]3C(=O)N(C)[C@@H](C)C(=O)N[C@@H](C)C(=O)N2C1` [ADEP2] ({Propanoyl(3-cHex)}-[Phe(3,5-F2)]SP[NMeA]A[Pro(4R-Me)]; ester 2-C), for which, at SaClpP [5], the “SaClpP peptidase activity enhancement” value was “enhanced weakly”. The SaClpP tetradecamer integrity result at SaClpP [6] is reported as “Inactivation by oligomeric breakdown in Tris buffer at pH 8 can be circumvented by the addition of ADEP2”. On SaClpP [7], the “affinity for SaClpP” value is “increased affinity for SaClpP”. Moreover, the “SaClpP peptidase activity retained in the presence of ADEP2” value on SaClpP [3] (Tris buffer pH 8, Figure 4A) is listed as “a substantial extent of the original activity (observed in the favorable HEPES buffer at pH 7) was retained in the presence of ADEP2”. At SaClpP [8], the EC50 was found to be 304 ± 179 nM.
